Measured values taken from patent US20100036088A1, “Selective poly-N-substituted glycine antibiotics” (priority 2008, published 2010).
Where two headings read alike, the source gives them in different places. Square brackets hold non-standard residues; d marks the D form. Peptide text beside a SMILES is read from it. Nrpe = C[C@@H](NCC(=O)O)c1ccccc1; Nspe = C[C@H](NCC(=O)O)c1ccccc1; Nlys = NCCCCNCC(=O)O

How the values were obtained:
human erythrocytes = experiment: Hemolysis assay; format: cell-based
Method: Hemolysis assays. Erythrocytes were isolated from freshly drawn, heparanized human blood and resuspended to 20 vol % in PBS (pH 7.4). In a 96-well microtiter plate, 100 μL erythrocyte suspension was added to 100 μL peptoid solution in PBS (prepared by 1:2 serial dilutions), or 100 μL PBS in the case of negative controls. 100% hemolysis wells contained 100 μL blood cell suspension with 100 μL 0.2 vol % Triton X-100. The plate was incubated for 1 h at 37° C., then each well was diluted with 150 μL PBS. The plate was then centrifuged at 1200 g for 15 min, 100 μL of the supernatant from each well transferred to a fresh microtiter plate, and A350 measured.
Hemolysis assays. Erythrocytes were isolated from freshly drawn, heparanized human blood and resuspended in PBS (pH 7.4) to make a 20% volume suspension. Peptoid solutions were prepared by serial dilution (2:1) in a 96-well microtiter plate. For test wells, 100 μL of erythrocyte suspension was added to 100 μL of peptoid solution in PBS; PBS without peptoid was used as the negative control and 0.2 vol % Triton X-100 as the positive control that indicates 100% hemolysis. After 1 hour incubation at 37° C., each well was diluted with 150 μL PBS. Plates were then centrifuged at 1,200×g for 15 minutes to pellet the cells. 30 μL of the supernatant from each well were transferred to the corresponding well of a second 96-well plate that contains 70 μL PBS.

B. subtilis (ATCC 6633) = format: cell-based; conditions: ATCC 6633
Method: (§1) Whereas the preceding generation of molecules was designed to elucidate structure function relationships of specific molecular parameters (chirality, length, hydrophobicity, etc.), another generation compounds were designed explicitly to explore effects on selectivity. Antimicrobial activity of these compounds was tested against bacterial strains E. coli (ATTC 35218) and B. subtilis (ATTC 6633) in cation-adjusted MHB using the microdilution protocols previously described. The sequences, antimicrobial activities, hemolytic activities, and metabolic inhibitory concentrations against NIH 3T3 mouse fibroblast cells are summarized in Table 3 and the rationale of their design is described below.
(§2) The potencies of all compounds were determined against representative Gram-negative (E. coli ATCC 35218) and Gram-positive (B. subtilis ATCC 6633) biosafety level 1 (BSL1) organisms. In addition to hemolytic activity, the conventional measure of toxicity to mammalian cells, the effect of each ampetoid on NIH 3T3 mouse fibroblast cells was determined using the MTS tetrazolium salt-based calorimetric assay. While hemolysis measures the degree to which erythrocytes are lysed, the MTS assay indirectly quantifies the extent to which cellular metabolic activity is inhibited.
(§3) Screening antibacterial assays. MICs were determined in 96-well microtiter plates in accordance with CLSI M7-A6 protocols. Peptoid solutions with 50 μL total volume were prepared using 2:1 serial dilutions. 50 μL of bacteria inoculum (1×10^6 CFU/mL) prepared in cation-adjusted Mueller-Hinton broth (CAMHB) was added to test wells. Control wells contained 100 μL MHB (no growth) or 50 μL inoculums with 50 μL MHB with no peptoid. […] Reported values were reproducible over three experiments, each containing two parallel trials.

E. coli (ATCC 35218) = format: cell-based; conditions: ATCC 35218
Method: as §1, §2, §3

[1] = MTS assay, metabolic inhibition; format: cell-based, mouse
Method: as §2
MTS assays. NIH/3T3 cells (ATCC Corporation) cultured at 37° C. and 5% CO2 in complete Dulbecco's modified eagle's media (CDMEM) supplemented with 1% sodium pyruvate, 1% penicillin-streptomycin, 1.5 g/L NaHCO3, and 10% fetal bovine serum. Cells were seeded at a density of 5,000 cells per well for NIH/3T3 cells in 96-well plates (100 μl total volume). A peptoid solution plate (100 μL total volume per well) was prepared by serial dilution of aqueous peptoid stock solution in Hank's balanced salt solution (HBSS) media. The day-old cell monolayers were washed with HBSS and media was replaced with 100 μL HBSS. The contents of the peptoid solution plate were transferred onto corresponding wells of the cell monolayer plate, and 40 μL MTS reagent (Promega, Inc.) was added to each well. After incubating for 3 hours at 37° C., absorbance at 490 nm was determined. […] The average of six replicates is reported.

B. subtilis MIC (B. subtilis (ATCC 6633)) [µM]	E. coli MIC (E. coli (ATCC 35218)) [µM]	IC50 [1] [µM]	Compound	HD10 (human erythrocytes)	HD50 (human erythrocytes)	HD10 (human erythrocytes; Table 6) [µM]	HD50 (human erythrocytes; Table 6) [µM]	B. subtilis MIC (B. subtilis (ATCC 6633); Table 6) [µM]	E. coli MIC (E. coli (ATCC 35218); Table 6) [µM]	IC50 ([1]; Table 6, NIH 3T3 mouse fibroblast cells) [µM]
1.6	25	–	C[C@@H](c1ccccc1)N(CC(N)=O)C(=O)CN(C(=O)CN(CCCCN)C(=O)CN(C(=O)CN(C(=O)CN(CCCCN)C(=O)CN(CCc1cnc[nH]1)C(=O)CN(C(=O)CN(CCCCN)C(=O)CN(C(=O)CN(C(=O)CNCCCCN)[C@@H](C)c1ccccc1)[C@@H](C)c1ccccc1)[C@@H](C)c1ccccc1)[C@@H](C)c1ccccc1)[C@@H](C)c1ccccc1)[C@@H](C)c1ccccc1 [1-Nhis6]	170 µM	> 200 µM	–	–	–	–	–
1.6	50	85	C[C@@H](c1ccccc1)N(CC(N)=O)C(=O)CN(CCCCN)C(=O)CN(CCCCN)C(=O)CN(C(=O)CN(C(=O)CN(CCCCN)C(=O)CN(C(=O)CN(CCCCN)C(=O)CN(CCCCN)C(=O)CN(C(=O)CN(C(=O)CNCCCCN)[C@@H](C)c1ccccc1)[C@@H](C)c1ccccc1)[C@@H](C)c1ccccc1)[C@@H](C)c1ccccc1)[C@@H](C)c1ccccc1 [1-Nlys5,11, H-(Nlys-Nspe-Nspe-Nlys-Nlys-Nspe)2-NH2] (H-[Nlys][Nspe][Nspe][Nlys][Nlys][Nspe][Nlys][Nspe][Nspe][Nlys][Nlys][Nspe]-NH2)	>100/>100 μM	>100/>100 μM	–	–	–	–	–
1.6	>100	> 100	C[C@H](NCC(=O)N(CCCCN)CC(=O)N(CC(=O)N(CCCCN)CC(=O)N(CCCCN)CC(=O)N(CCCCN)CC(=O)N(CC(=O)N(CCCCN)CC(=O)N(CC(=O)N(CCCCN)CC(=O)N(CCCCN)CC(=O)N(CC(N)=O)[C@@H](C)c1ccccc1)[C@@H](C)c1ccccc1)[C@@H](C)c1ccccc1)[C@@H](C)c1ccccc1)c1ccccc1 [1B-Nlys4,6,10, H-(Nspe-Nlys)2-Nlys2-(Nspe-Nlys)2-Nlys-Nspe)-NH2] (H-[Nspe][Nlys][Nspe][Nlys][Nlys][Nlys][Nspe][Nlys][Nspe][Nlys][Nlys][Nspe]-NH2)	–	–	–	–	–	–	–

Second part, the compound before the results:

Compound	B. subtilis MIC (B. subtilis (ATCC 6633)) [µM]	E. coli MIC (E. coli (ATCC 35218)) [µM]	IC50 [1] [µM]	HD10 (human erythrocytes)	HD50 (human erythrocytes)	HD10 (human erythrocytes; Table 6) [µM]	HD50 (human erythrocytes; Table 6) [µM]	B. subtilis MIC (B. subtilis (ATCC 6633); Table 6) [µM]	E. coli MIC (E. coli (ATCC 35218); Table 6) [µM]	IC50 ([1]; Table 6, NIH 3T3 mouse fibroblast cells) [µM]
C[C@@H](c1ccccc1)N(CC(N)=O)C(=O)CN(C(=O)CN(CCCCN)C(=O)CN(Cc1ccccc1)C(=O)CN(Cc1ccccc1)C(=O)CN(CCCCN)C(=O)CN(C(=O)CN(C(=O)CN(CCCCN)C(=O)CN(Cc1ccccc1)C(=O)CN(Cc1ccccc1)C(=O)CNCCCCN)[C@@H](C)c1ccccc1)[C@@H](C)c1ccccc1)[C@@H](C)c1ccccc1 [1-Npm2,3,8,9, H-(Nlys-Npm-Npm-Nlys-Nspe-Nspe)2-NH2]	1.6	6.3	15	–	> 200 µM	–	–	–	–	–
C[C@H](c1ccccc1)N(CC(=O)N(CCCCN)CC(=O)N(CC(=O)N(CC(=O)N(CCCCN)CC(=O)N(CC(=O)N(CC(=O)N(CCCCN)CC(=O)N(CC(=O)N(CC(N)=O)[C@@H](C)c1ccccc1)[C@@H](C)c1ccccc1)[C@@H](C)c1ccccc1)[C@@H](C)c1ccccc1)[C@H](C)c1ccccc1)[C@H](C)c1ccccc1)C(=O)CN(C(=O)CNCCCCN)[C@H](C)c1ccccc1 [1-Nrpe2,3,5,6, H-(Nlys-Nrpe-Nrpe)2-(Nlys-Nspe-Nspe)2-NH2] (H-[Nlys][Nrpe][Nrpe][Nlys][Nrpe][Nrpe][Nlys][Nspe][Nspe][Nlys][Nspe][Nspe]-NH2)	–	–	–	–	–	25	96	0.78	6.3	4.8
C[C@H](NCC(=O)N(CCCCN)CC(=O)N(CC(=O)N(CCCCN)CC(=O)N(CCCCN)CC(=O)N(CCCCN)CC(=O)N(CC(=O)N(CCCCN)CC(=O)N(CC(=O)N(CCCCN)CC(=O)N(CCCCN)CC(=O)N(CC(=O)N(CC(=O)N(CCCCN)CC(=O)N(CC(N)=O)[C@@H](C)c1ccccc1)[C@@H](C)c1ccccc1)[C@@H](C)c1ccccc1)[C@@H](C)c1ccccc1)[C@@H](C)c1ccccc1)[C@@H](C)c1ccccc1)c1ccccc1 [1B15mer-Nlys4,6,10, H-(Nspe-Nlys)2-Nlys2-(Nspe-Nlys)2-Nlys-Nspe2-Nlys-Nspe-NH2] (H-[Nspe][Nlys][Nspe][Nlys][Nlys][Nlys][Nspe][Nlys][Nspe][Nlys][Nlys][Nspe][Nspe][Nlys][Nspe]-NH2)	0.78	>100	40	–	–	–	–	–	–	–
